Reference: patent US6358885B1, “Substituted phenylheterocyclic herbicides” (Mississippi State University, priority 1992, dated 2002)

Key:
barley = assay: Test B preemergence/postemergence greenhouse plant response rating 0 to 10; format: in vivo, Hordeum vulgare; details: 0 to 10 scale
Procedure, shortened: (§1)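 Test chemicals were sprayed onto freshly planted seed and, concurrently, onto young plants between the one and four leaf stage. After a twelve- to sixteen-day greenhouse period, each species was visually compared with untreated controls.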

bedstraw = assay: as above; format: in vivo, Galium aparine; details: 0 to 10 scale
Procedure, shortened: as §1

blackgrass [1] = assay: as above; format: in vivo, Alopecurus myosuroides; details: 0 to 10 scale
Procedure, shortened: as §1

cheatgrass = assay: as above; format: in vivo, Bromus secalinus; details: 0 to 10 scale
Procedure, shortened: as §1

cocklebur = assay: as above; format: in vivo, Xanthium pensylvanicum; details: 0 to 10 scale
Procedure, shortened: as §1

cotton = assay: as above; format: in vivo, Gossypium hirsutum; details: 0 to 10 scale
Procedure, shortened: as §1

rice = assay: as above; format: in vivo, Oryza sativa; details: 0 to 10 scale
Procedure, shortened: as §1

wild buckwheat = assay: as above; format: in vivo, Polygonum convolvulus; details: 0 to 10 scale
Procedure, shortened: as §1

blackgrass [2] = assay: Test C preemergence/postemergence greenhouse plant response rating 0 to 100; format: in vivo, Alopecurus myosuroides; details: POSTEMERGENCE
Procedure, shortened: (§2)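 Compounds in non-phytotoxic solvent applied preemergence to sandy loam one day after planting, postemergence at the 1–4 leaf stage, or to ~2.5 cm floodwater over silt loam.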

corn = assay: as above; format: in vivo, Zea mays; details: POSTEMERGENCE
Procedure, shortened: as §2

giant foxtail = assay: as above; format: in vivo, Setaria faberii; details: POSTEMERGENCE
Procedure, shortened: as §2

lambsquarters = assay: as above; format: in vivo, Chenopodium album; details: POSTEMERGENCE
Procedure, shortened: as §2

rape = assay: as above; format: in vivo, Brassica napus; details: POSTEMERGENCE
Procedure, shortened: as §2

ryegrass = assay: as above; format: in vivo, Lolium multiflorum; details: POSTEMERGENCE
Procedure, shortened: as §2

sugar beet = assay: as above; format: in vivo, Beta vulgaris; details: POSTEMERGENCE
Procedure, shortened: as §2

wheat = assay: as above; format: in vivo, Triticum aestivum; details: POSTEMERGENCE
Procedure, shortened: as §2

duck salad = assay: Test C flood test plant response rating 0 to 100; format: in vivo, Heteranthera limosa
Procedure, shortened: as §2

barnyardgrass = assay: Test C flood test plant response rating 0 to 100; format: in vivo, Echinochloa crus-galli
Procedure, shortened: as §2

[3] = POSTEMERGENCE section, flood test, Rate 1 g/ha
[4] = POSTEMERGENCE section, flood test, Rate 4 g/ha
[5] = Rate 16 g/ha, under POSTEMERGENCE head (flood test species)
[6] = flood test species listed under POSTEMERGENCE, 62 g/ha, 0 to 100 scale

Structure (SMILES): COCN1C(=O)COc2cc(F)c(-c3nn4c(c3Br)CCCC4)cc21 [Compound 67]
- Plant response rating, Barley (barley; POSTEMERGENCE, Rate 10 g/ha): 4
- Plant response rating, Barley (barley; POSTEMERGENCE, Rate 50 g/ha): 6
- Plant response rating, Barley (barley; PREEMERGENCE, Rate 10 g/ha): 0
- Plant response rating, Barley (barley; PREEMERGENCE, Rate 50 g/ha): 2
- Plant response rating, Bedstraw (bedstraw; POSTEMERGENCE, Rate 10 g/ha): 8
- Plant response rating, Bedstraw (bedstraw; POSTEMERGENCE, Rate 50 g/ha): 10
- Plant response rating, Bedstraw (bedstraw; PREEMERGENCE, Rate 10 g/ha): 0
- Plant response rating, Bedstraw (bedstraw; PREEMERGENCE, Rate 50 g/ha): 3
- Plant response rating, Blackgrass (blackgrass [1]; POSTEMERGENCE, Rate 10 g/ha): 4
- Plant response rating, Blackgrass (blackgrass [1]; POSTEMERGENCE, Rate 50 g/ha): 5
- Plant response rating, Blackgrass (blackgrass [1]; PREEMERGENCE, Rate 10 g/ha): 3
- Plant response rating, Blackgrass (blackgrass [1]; PREEMERGENCE, Rate 50 g/ha): 8
- Plant response rating, Cheatgrass (cheatgrass; POSTEMERGENCE, Rate 10 g/ha): 5
- Plant response rating, Cheatgrass (cheatgrass; POSTEMERGENCE, Rate 50 g/ha): 6
- Plant response rating, Cheatgrass (cheatgrass; PREEMERGENCE, Rate 10 g/ha): 2
- Plant response rating, Cheatgrass (cheatgrass; PREEMERGENCE, Rate 50 g/ha): 6
- Plant response rating, Cocklebur (cocklebur; POSTEMERGENCE, Rate 10 g/ha): 8
- Plant response rating, Cocklebur (cocklebur; POSTEMERGENCE, Rate 50 g/ha): 9
- Plant response rating, Cocklebur (cocklebur; PREEMERGENCE, Rate 10 g/ha): 0
- Plant response rating, Cocklebur (cocklebur; PREEMERGENCE, Rate 50 g/ha): 0
- Plant response rating, Cotton (cotton; POSTEMERGENCE, Rate 10 g/ha): 10
- Plant response rating, Cotton (cotton; POSTEMERGENCE, Rate 50 g/ha): 10
- Plant response rating, Cotton (cotton; PREEMERGENCE, Rate 10 g/ha): 0
- Plant response rating, Cotton (cotton; PREEMERGENCE, Rate 50 g/ha): 1
- Plant response rating, Rice (rice; POSTEMERGENCE, Rate 10 g/ha): 6
- Plant response rating, Rice (rice; POSTEMERGENCE, Rate 50 g/ha): 7
- Plant response rating, Rice (rice; PREEMERGENCE, Rate 50 g/ha): 0
- Plant response rating, Wild buckwheat (wild buckwheat; POSTEMERGENCE, Rate 10 g/ha): 10
- Plant response rating, Wild buckwheat (wild buckwheat; POSTEMERGENCE, Rate 50 g/ha): 10
- Plant response rating, Wild buckwheat (wild buckwheat; PREEMERGENCE, Rate 50 g/ha): 10
- Plant response rating, Blackgrass (blackgrass [2]; 62 g/ha, 0 to 100 scale): 60
- Plant response rating (0 to 100), Blackgrass (blackgrass [2]; Rate 1 g/ha): 30
- Plant response rating (0 to 100), Blackgrass (blackgrass [2]; Rate 4 g/ha): 40
- Plant response rating (0 to 100), Blackgrass (blackgrass [2]; Rate 16 g/ha): 50
- Plant response rating, Corn (corn; 62 g/ha, 0 to 100 scale): 40
- Plant response rating (0 to 100), Corn (corn; Rate 1 g/ha): 10
- Plant response rating (0 to 100), Corn (corn; Rate 4 g/ha): 20
- Plant response rating (0 to 100), Corn (corn; Rate 16 g/ha): 30
- Plant response rating, Giant foxtail (giant foxtail; 62 g/ha, 0 to 100 scale): 40
- Plant response rating (0 to 100), Giant foxtail (giant foxtail; Rate 1 g/ha): 10
- Plant response rating (0 to 100), Giant foxtail (giant foxtail; Rate 4 g/ha): 20
- Plant response rating (0 to 100), Giant foxtail (giant foxtail; Rate 16 g/ha): 30
- Plant response rating Lambsquarters (lambsquarters; 62 g/ha, 0 to 100 scale): 100
- Plant response rating (0 to 100), Lambsquarters (lambsquarters; Rate 1 g/ha): 100
- Plant response rating (0 to 100), Lambsquarters (lambsquarters; Rate 4 g/ha): 100
- Plant response rating (0 to 100), Lambsquarters (lambsquarters; Rate 16 g/ha): 100
- Plant response rating, Rape (rape; 62 g/ha, 0 to 100 scale): 100
- Plant response rating (0 to 100), Rape (rape; Rate 1 g/ha): 70
- Plant response rating (0 to 100), Rape (rape; Rate 4 g/ha): 70
- Plant response rating (0 to 100), Rape (rape; Rate 16 g/ha): 90
- Plant response rating Ryegrass (ryegrass; 62 g/ha, 0 to 100 scale): 60
- Plant response rating (0 to 100), Ryegrass (ryegrass; Rate 1 g/ha): 20
- Plant response rating (0 to 100), Ryegrass (ryegrass; Rate 4 g/ha): 40
- Plant response rating (0 to 100), Ryegrass (ryegrass; Rate 16 g/ha): 50
- Plant response rating, Sugar beet (sugar beet; 62 g/ha, 0 to 100 scale): 100
- Plant response rating (0 to 100), Sugar beet (sugar beet; Rate 1 g/ha): 100
- Plant response rating (0 to 100), Sugar beet (sugar beet; Rate 4 g/ha): 100
- Plant response rating (0 to 100), Sugar beet (sugar beet; Rate 16 g/ha): 100
- Plant response rating, Wheat (wheat; 62 g/ha, 0 to 100 scale): 60
- Plant response rating (0 to 100), Wheat (wheat; Rate 1 g/ha): 10
- Plant response rating (0 to 100), Wheat (wheat; Rate 4 g/ha): 30
- Plant response rating (0 to 100), Wheat (wheat; Rate 16 g/ha): 50
- Plant response rating (0 to 100), Duck salad (duck salad; [3]): 0
- Plant response rating (0 to 100), Duck salad (duck salad; [4]): 0
- Plant response rating (0 to 100), Duck salad (duck salad; [5]): 0
- Plant response rating Duck salad (duck salad; [6]): 10
- Plant response rating (0 to 100), Barnyardgrass 2 (barnyardgrass; [3]): 0
- Plant response rating (0 to 100), Barnyardgrass 2 (barnyardgrass; [4]): 20
- Plant response rating (0 to 100), Barnyardgrass 2 (barnyardgrass; [5]): 90
- Plant response rating Barnyardgrass 2 (barnyardgrass; [6]): 95
